Experimental data from publication PMC11352961, “Peptide dendrimers transfecting CRISPR/Cas9 plasmid DNA: optimization and mechanism” (RSC Chemical Biology, 2024).
Bridge positions count the residues as written; N and C are the ends. Square brackets hold non-standard residues; d marks the D form. Side chains are listed from the residue outwards. Peptide text beside a SMILES is read from it. I, II: the chains in the order shown. * marks the point of attachment. Stearoyl = CCCCCCCCCCCCCCCCCC(=O)*; Palmitoyl = CCCCCCCCCCCCCCCC(=O)*

Assays:
HEK293 cells = assay: Cell viability by PrestoBlue assay after transfection, HEK cells; type: cell-based; conditions: 4 h
HeLa cells = assay: Cell viability by PrestoBlue assay after transfection, HeLa cells; type: cell-based; conditions: 4 h

| SMILES | % viability HEK cells (HEK293 cells) | % viability HeLa cells (HeLa cells) |
| --- | --- | --- |
| CC(C)C[C@H](NC(=O)[C@H](CCCCN)NC(=O)[C@H](CCCCNC(=O)[C@H](CC(C)C)NC(=O)[C@H](CCCCN)NC(=O)[C@H](CCCCNC(=O)[C@H](CC(C)C)NC(=O)[C@@H](N)CCCCN)NC(=O)[C@H](CC(C)C)NC(=O)[C@@H](N)CCCCN)NC(=O)[C@H](CC(C)C)NC(=O)[C@H](CCCCN)NC(=O)[C@H](CCCCNC(=O)[C@H](CC(C)C)NC(=O)[C@@H](N)CCCCN)NC(=O)[C@H](CC(C)C)NC(=O)[C@@H](N)CCCCN)C(=O)NCCCC[C@H](NC(=O)[C@H](CC(C)C)NC(=O)[C@H](CCCCN)NC(=O)[C@H](CCCCNC(=O)[C@H](CC(C)C)NC(=O)[C@H](CCCCN)NC(=O)[C@H](CCCCNC(=O)[C@H](CC(C)C)NC(=O)[C@@H](N)CCCCN)NC(=O)[C@H](CC(C)C)NC(=O)[C@@H](N)CCCCN)NC(=O)[C@H](CC(C)C)NC(=O)[C@H](CCCCN)NC(=O)[C@H](CCCCNC(=O)[C@H](CC(C)C)NC(=O)[C@@H](N)CCCCN)NC(=O)[C@H](CC(C)C)NC(=O)[C@@H](N)CCCCN)C(=O)NCC(=O)N[C@@H](CO)C(=O)N[C@@H](CS)C(N)=O [G123KL, reference compound] (I: H-KLK([Leu-Lys])KLKKLKGSC-NH2 / II: H-KLK([Leu-Lys])KLKKL / III: H-KLK([Leu-Lys])KL / IV: H-KLK([Leu-Lys])KL; amide I:6-IV:C, I:9-II:C, II:6-III:C) | 52 ± 9% | – |
| CCCCCCCCCCCCCCCCCC(=O)NCCCC[C@H](NC(=O)[C@H](CCCCNC(=O)CCCCCCCCCCCCCCCCC)NC(=O)[C@H](CCCCNC(=O)[C@H](CC(C)C)NC(=O)[C@H](CCCCN)NC(=O)[C@H](CCCCNC(=O)[C@H](CC(C)C)NC(=O)[C@H](CCCCN)NC(=O)[C@H](CCCCNC(=O)[C@H](CC(C)C)NC(=O)[C@@H](N)CCCCN)NC(=O)[C@H](CC(C)C)NC(=O)[C@@H](N)CCCCN)NC(=O)[C@H](CC(C)C)NC(=O)[C@H](CCCCN)NC(=O)[C@H](CCCCNC(=O)[C@H](CC(C)C)NC(=O)[C@@H](N)CCCCN)NC(=O)[C@H](CC(C)C)NC(=O)[C@@H](N)CCCCN)NC(=O)[C@H](CC(C)C)NC(=O)[C@H](CCCCN)NC(=O)[C@H](CCCCNC(=O)[C@H](CC(C)C)NC(=O)[C@H](CCCCN)NC(=O)[C@H](CCCCNC(=O)[C@H](CC(C)C)NC(=O)[C@@H](N)CCCCN)NC(=O)[C@H](CC(C)C)NC(=O)[C@@H](N)CCCCN)NC(=O)[C@H](CC(C)C)NC(=O)[C@H](CCCCN)NC(=O)[C@H](CCCCNC(=O)[C@H](CC(C)C)NC(=O)[C@@H](N)CCCCN)NC(=O)[C@H](CC(C)C)NC(=O)[C@@H](N)CCCCN)C(N)=O [Z2] (I: H-KLK([Leu-Lys])KLKKLKK(Stearoyl)K(Stearoyl)-NH2 / II: H-KLK([Leu-Lys])KLKKL / III: H-KLK([Leu-Lys])KL / IV: H-KLK([Leu-Lys])KL; amide I:6-IV:C, I:9-II:C, II:6-III:C) | 79 ± 11% | 47 ± 3% |
| CC(C)C[C@H](NC(=O)[C@H](CC(C)C)NC(=O)[C@H](CC(C)C)NC(=O)[C@H](CC(C)C)NC(=O)[C@H](CC(C)C)NC(=O)[C@H](CCCCNC(=O)[C@H](CC(C)C)NC(=O)[C@H](CCCCN)NC(=O)[C@H](CCCCNC(=O)[C@H](CC(C)C)NC(=O)[C@H](CCCCN)NC(=O)[C@H](CCCCNC(=O)[C@H](CC(C)C)NC(=O)[C@@H](N)CCCCN)NC(=O)[C@H](CC(C)C)NC(=O)[C@@H](N)CCCCN)NC(=O)[C@H](CC(C)C)NC(=O)[C@H](CCCCN)NC(=O)[C@H](CCCCNC(=O)[C@H](CC(C)C)NC(=O)[C@@H](N)CCCCN)NC(=O)[C@H](CC(C)C)NC(=O)[C@@H](N)CCCCN)NC(=O)[C@H](CC(C)C)NC(=O)[C@H](CCCCN)NC(=O)[C@H](CCCCNC(=O)[C@H](CC(C)C)NC(=O)[C@H](CCCCN)NC(=O)[C@H](CCCCNC(=O)[C@H](CC(C)C)NC(=O)[C@@H](N)CCCCN)NC(=O)[C@H](CC(C)C)NC(=O)[C@@H](N)CCCCN)NC(=O)[C@H](CC(C)C)NC(=O)[C@H](CCCCN)NC(=O)[C@H](CCCCNC(=O)[C@H](CC(C)C)NC(=O)[C@@H](N)CCCCN)NC(=O)[C@H](CC(C)C)NC(=O)[C@@H](N)CCCCN)C(N)=O [Z3] (I: H-KLK([Leu-Lys])KLKKLKLLLLL-NH2 / II: H-KLK([Leu-Lys])KLKKL / III: H-KLK([Leu-Lys])KL / IV: H-KLK([Leu-Lys])KL; amide I:6-IV:C, I:9-II:C, II:6-III:C) | 76 ± 7% | 51 ± 5% |
| CCCCCCCCCCCCCCCC(=O)NCCCC[C@H](NC(=O)[C@H](CCCCNC(=O)[C@H](CC(C)C)NC(=O)[C@H](CCCCN)NC(=O)[C@H](CCCCNC(=O)[C@H](CC(C)C)NC(=O)[C@H](CCCCN)NC(=O)[C@H](CCCCNC(=O)[C@H](CC(C)C)NC(=O)[C@@H](N)CCCCN)NC(=O)[C@H](CC(C)C)NC(=O)[C@@H](N)CCCCN)NC(=O)[C@H](CC(C)C)NC(=O)[C@H](CCCCN)NC(=O)[C@H](CCCCNC(=O)[C@H](CC(C)C)NC(=O)[C@@H](N)CCCCN)NC(=O)[C@H](CC(C)C)NC(=O)[C@@H](N)CCCCN)NC(=O)[C@H](CC(C)C)NC(=O)[C@H](CCCCN)NC(=O)[C@H](CCCCNC(=O)[C@H](CC(C)C)NC(=O)[C@H](CCCCN)NC(=O)[C@H](CCCCNC(=O)[C@H](CC(C)C)NC(=O)[C@@H](N)CCCCN)NC(=O)[C@H](CC(C)C)NC(=O)[C@@H](N)CCCCN)NC(=O)[C@H](CC(C)C)NC(=O)[C@H](CCCCN)NC(=O)[C@H](CCCCNC(=O)[C@H](CC(C)C)NC(=O)[C@@H](N)CCCCN)NC(=O)[C@H](CC(C)C)NC(=O)[C@@H](N)CCCCN)C(N)=O [Z4] (I: H-KLK([Leu-Lys])KLKKLKK(Palmitoyl)-NH2 / II: H-KLK([Leu-Lys])KLKKL / III: H-KLK([Leu-Lys])KL / IV: H-KLK([Leu-Lys])KL; amide I:6-IV:C, I:9-II:C, II:6-III:C) | 89 ± 11% | 88 ± 11% |
| CCCCCCCCCCCCCCCCCC(=O)NCCCC[C@H](NC(=O)[C@H](CCCCNC(=O)[C@H](CC(C)C)NC(=O)[C@H](CCCCN)NC(=O)[C@H](CCCCNC(=O)[C@H](CC(C)C)NC(=O)[C@H](CCCCN)NC(=O)[C@H](CCCCNC(=O)[C@H](CC(C)C)NC(=O)[C@@H](N)CCCCN)NC(=O)[C@H](CC(C)C)NC(=O)[C@@H](N)CCCCN)NC(=O)[C@H](CC(C)C)NC(=O)[C@H](CCCCN)NC(=O)[C@H](CCCCNC(=O)[C@H](CC(C)C)NC(=O)[C@@H](N)CCCCN)NC(=O)[C@H](CC(C)C)NC(=O)[C@@H](N)CCCCN)NC(=O)[C@H](CC(C)C)NC(=O)[C@H](CCCCN)NC(=O)[C@H](CCCCNC(=O)[C@H](CC(C)C)NC(=O)[C@H](CCCCN)NC(=O)[C@H](CCCCNC(=O)[C@H](CC(C)C)NC(=O)[C@@H](N)CCCCN)NC(=O)[C@H](CC(C)C)NC(=O)[C@@H](N)CCCCN)NC(=O)[C@H](CC(C)C)NC(=O)[C@H](CCCCN)NC(=O)[C@H](CCCCNC(=O)[C@H](CC(C)C)NC(=O)[C@@H](N)CCCCN)NC(=O)[C@H](CC(C)C)NC(=O)[C@@H](N)CCCCN)C(=O)N[C@@H](CS)C(N)=O [Z12] (I: H-KLK([Leu-Lys])KLKKLKK(Stearoyl)C-NH2 / II: H-KLK([Leu-Lys])KLKKL / III: H-KLK([Leu-Lys])KL / IV: H-KLK([Leu-Lys])KL; amide I:6-IV:C, I:9-II:C, II:6-III:C) | 80 ± 5% | 112 ± 10% |
| CCCCCCCCCCCCCCCCCC(=O)NCCCC[C@H](NC(=O)[C@H](CCCCNC(=O)[C@H](CC(C)C)NC(=O)[C@H](CCCCN)NC(=O)[C@H](CCCCNC(=O)[C@H](CC(C)C)NC(=O)[C@H](CCCCN)NC(=O)[C@H](CCCCNC(=O)[C@H](CC(C)C)NC(=O)[C@@H](N)CCCCN)NC(=O)[C@H](CC(C)C)NC(=O)[C@@H](N)CCCCN)NC(=O)[C@H](CC(C)C)NC(=O)[C@H](CCCCN)NC(=O)[C@H](CCCCNC(=O)[C@H](CC(C)C)NC(=O)[C@@H](N)CCCCN)NC(=O)[C@H](CC(C)C)NC(=O)[C@@H](N)CCCCN)NC(=O)[C@H](CC(C)C)NC(=O)[C@H](CCCCN)NC(=O)[C@H](CCCCNC(=O)[C@H](CC(C)C)NC(=O)[C@H](CCCCN)NC(=O)[C@H](CCCCNC(=O)[C@H](CC(C)C)NC(=O)[C@@H](N)CCCCN)NC(=O)[C@H](CC(C)C)NC(=O)[C@@H](N)CCCCN)NC(=O)[C@H](CC(C)C)NC(=O)[C@H](CCCCN)NC(=O)[C@H](CCCCNC(=O)[C@H](CC(C)C)NC(=O)[C@@H](N)CCCCN)NC(=O)[C@H](CC(C)C)NC(=O)[C@@H](N)CCCCN)C(=O)N[C@@H](C)C(N)=O [Z15] (I: H-KLK([Leu-Lys])KLKKLKK(Stearoyl)A-NH2 / II: H-KLK([Leu-Lys])KLKKL / III: H-KLK([Leu-Lys])KL / IV: H-KLK([Leu-Lys])KL; amide I:6-IV:C, I:9-II:C, II:6-III:C) | 71 ± 7% | 107 ± 10% |
| CCCCCCCCCCCCCCCCCC(=O)NCCCC[C@@H](NC(=O)[C@@H](CCCCNC(=O)[C@@H](CC(C)C)NC(=O)[C@@H](CCCCN)NC(=O)[C@@H](CCCCNC(=O)[C@@H](CC(C)C)NC(=O)[C@@H](CCCCN)NC(=O)[C@@H](CCCCNC(=O)[C@@H](CC(C)C)NC(=O)[C@H](N)CCCCN)NC(=O)[C@@H](CC(C)C)NC(=O)[C@H](N)CCCCN)NC(=O)[C@@H](CC(C)C)NC(=O)[C@@H](CCCCN)NC(=O)[C@@H](CCCCNC(=O)[C@@H](CC(C)C)NC(=O)[C@H](N)CCCCN)NC(=O)[C@@H](CC(C)C)NC(=O)[C@H](N)CCCCN)NC(=O)[C@@H](CC(C)C)NC(=O)[C@@H](CCCCN)NC(=O)[C@@H](CCCCNC(=O)[C@@H](CC(C)C)NC(=O)[C@@H](CCCCN)NC(=O)[C@@H](CCCCNC(=O)[C@@H](CC(C)C)NC(=O)[C@H](N)CCCCN)NC(=O)[C@@H](CC(C)C)NC(=O)[C@H](N)CCCCN)NC(=O)[C@@H](CC(C)C)NC(=O)[C@@H](CCCCN)NC(=O)[C@@H](CCCCNC(=O)[C@@H](CC(C)C)NC(=O)[C@H](N)CCCCN)NC(=O)[C@@H](CC(C)C)NC(=O)[C@H](N)CCCCN)C(=O)N[C@H](CS)C(N)=O [Z20] (I: H-[dK][dL][dK]([dL-dK])[dK][dL][dK][dK][dL][dK][dK](Stearoyl)[dC]-NH2 / II: H-[dK][dL][dK]([dL-dK])[dK][dL][dK][dK][dL] / III: H-[dK][dL][dK]([dL-dK])[dK][dL] / IV: H-[dK][dL][dK]([dL-dK])[dK][dL]; amide I:6-IV:C, I:9-II:C, II:6-III:C) | 85 ± 9% | 85 ± 9% |
